Data set [1] is described as follows: physchem. How it is done: The solubility data for each system tested in Table DD, was determined by the following method. First, a measured amount of dry crude mixture (39.3% clari, 37.5% 6,11, and 23.2% other impurities) was added to a measured volume of the mobile phase solvent being used for the particular test case and the mixture was stirred. Heat was added while the mixture was being stirred because dissolution of Clarithromycin and 6,11 is very slow at room temperature. The solution temperature was allowed to approach the boiling temperature of the solvent. The solution was held constant at that temperature until no more solid material was present in the mixture (complete dissolution). […]
In addition to the assembly of the physical system 500, the maximum feed concentration allowed by solubility must be known to optimize the operating parameters with the non-linear, non-equilibrium equations. The solubility was determined in the manner described earlier. Next, the optimal feed concentration was determined and was created by diluting the maximum feed concentration solution. […]
The feed solutions for Experiment #1 were prepared by mixing 5.6 g dry crude (39.3% clari, 37.5% 6,11, 23.2% other) Clarithromycin and 6,11 with 1000 ml of 80% methanol. […] Finally, this solution was filtered to remove any remaining solids and the volume measured to insure there was not significant evaporation. […]

The nature of data set [2]: Solubility in Ethanol/water solutions (excess solid stirred four hours, filtered, HPLC).
Description: The relative solubilities of Clarithromycin and 6,11 at various percentages of Ethanol in the Ethanol/water solution provide a solubility curve for both Clarithromycin and 6,11. The Ethanol used is 200 proof and is available from McCormick Distilling Co. in Weston, Mass. The water used is distilled deionized water obtained from a MILLI-Q™ system available from Millipore located in Bedford, Mass. The solubilities of Clarithromycin and 6,11 are determined by adding an excess amount of the component being tested to the tested Ethanol/water solution and stirring the mixture for four hours at approximately room temperature (24 C.). The resultant solution is then filtered and assayed for concentration using HPLC (high performance liquid chromatography).
Clarithromycin solubility curve 90 was found using pure Clarithromycin. 6,11 solubility curve 92 was found using a binary mixture of Clarithromycin and 6,11.

The text below walks through data of patent US6843854B2, “Method and apparatus for separating a component from a mixture” (Purdue Research Foundation, priority 2002, dated 2005).

The structures appear in SMILES notation. Converted amounts (≈) assume the structure as drawn.

Take `CC[C@H]1OC(=O)[C@H](C)[C@@H](O[C@H]2C[C@@](C)(OC)[C@@H](O)[C@H](C)O2)[C@H](C)[C@@H](O[C@@H]2O[C@H](C)C[C@H](N(C)C)[C@H]2O)[C@](C)(OC)C[C@@H](C)C(=O)[C@H](C)[C@@H](OC)[C@]1(C)O` [6,11, 6,11-O-methyl erythromycin A]: in data set [1], the solubility limit was determined as 3030 µg/mL (≈ 3.98 mM).
`CC[C@H]1OC(=O)[C@H](C)[C@@H](O[C@H]2C[C@@](C)(OC)[C@@H](O)[C@H](C)O2)[C@H](C)[C@@H](O[C@@H]2O[C@H](C)C[C@H](N(C)C)[C@H]2O)[C@](C)(OC)C[C@@H](C)C(=O)[C@H](C)[C@@H](O)[C@]1(C)O` [Clarithromycin, 6-O-methyl erythromycin A]: the solubility (in general, how much of the substance goes into solution per volume) in data set [1] (24 °C, organic solvent or mixture, thermodynamic from solid, solubility limit) was 2460 µg/mL (≈ 3.29 mM); in data set [2] (Ethanol percentages below about 60%), “very small”; in data set [2] (various Ethanol/water solutions, approximately room temperature (24 C.), FIG. 8), “higher degree of solubility than 6,11”. In data set [2] (approximately room temperature (24 C.), FIG. 8), the “Ethanol content of the Ethanol/water solution at maximum solubility” value was “about 80 % Ethanol”.
